logP | SMILES
3.75 | Cc1cccc([N+](=O)[O-])c1C(=O)NC(=O)Nc1ccc(Cl)cc1
-0.01 | CCNC(=O)NC(C)=O
3.2 | O=C(NC(=O)c1c(F)cccc1F)Nc1ccc(F)cc1
-0.7 | CNC(=O)NC(C)=O
-1.4 | CNC(N)=O
1.27 | CNC(=O)NC(=O)c1ccccc1
4.35 | COc1ccccc1C(=O)NC(=O)Nc1ccc(Cl)cc1
3.39 | O=C(NC(=O)c1ccccc1)Nc1ccccc1
1.92 | CCNC(=O)NC(=O)c1ccccc1
1.6 | CC(=O)NC(=O)Nc1ccccc1

SMILES | logP
O=C(NC(=O)c1c(F)cccc1F)Nc1ccc(Cl)cc1 | 3.88
